Experiments:
[1] = tested on: ER in brain neurons of 5×FAD mice; experiment: In vivo imaging of ER volumes in brain neurons (ER-Tracker Red); design: species or system mouse; details: 5×FAD mice given at 1 month of age, measured at 6 months of age (FIGS. 13 and 15)
Method: The skull bones on RSD surface of normal mice (non-transgenic B6/SJL mice) or 5×FAD mice were removed using a high-speed microdrill. 1 μL of a liquid containing 100 nM amyloid-binding substance BTA1 (2-(4′-(methylamino)phenyl) benzothiazole, manufactured by Sigma-Aldrich Co. LLC) and 100 nM ER-Tracker Red (E34250, manufactured by Thermo
Fisher Scientific Inc.) was injected to RSD in the presence of 1% isoflurane (anesthetic). 4 hours later, ER-Tracker Red was imaged using an upright microscope (BX61WI, manufactured by Olympus Corp.) and a scanning laser microscope system FV1000MPE2 (manufactured by Olympus Corp.) equipped with an immersion objective lens (XLPlanN25xW, numerical aperture: 1.05) and a pulse laser (MaiTaiHP DeepSee, manufactured by Spectra-Physics, Inc.) to obtain images of detected BTA1 fluorescence signals (BTA1 images) and images of detected ER-Tracker Red fluorescence signals (ER-Tracker images). The fluorescence signal volumes of ER-Tracker Red (i.e., volumes of ER) were measured. […]

[2] = tested on: pSer46-MARCKS in brain neurons of 5×FAD mice; experiment: pSer46-MARCKS levels of brain neurons by immunohistochemical staining; format: in vivo, mouse; details: 5×FAD mice given at 1 month of age, measured at 6 months of age, vs 5×FAD mice without administration (FIG. 16)
5×FAD mice = experiment: Cognitive function analysis, Y-shaped maze score of alternation behavior; format: in vivo, mouse; details: tested at 6 months of age
Method: The administration of AAV-YAPΔC-ins61 or AAV-NINS (titer: 1×10^10 vector genomes/mL each, 1 μL) to mouse RSD (retrosplenial cortex) (depth of −2.0 mm from the bregma and 0.6 mm mediolaterally) and the subarachnoidal administration of S1P (40 nM, 0.15 μL/hr; manufactured by Sigma-Aldrich Co. LLC) or control artificial cerebrospinal fluid (aCSF) (0.15 μL/hr; manufactured by Alzet Osmotic Pressures) to the mice were performed according to the method described in the document “Yang, G. et al., Nat Protoc 5, 201-208 (2010)”. The administration of AAV-YAPΔC-ins61 or AAV-NINS to the mice was performed at 1 or 5 months of age. The administration of S1P to the mice was continuously performed for a period from 1 to 6 months of age or for a period from 5 to 6 months of age.
The normal mice (non-transgenic B6/SJL mice) or the 5×FAD mice given AAV-YAPΔC-ins61 or AAV-NINS, or S1P were tested for their exploratory behavior when aged 6 months using a Y-shaped maze (manufactured by O'HARA & Co., Ltd.) in which three arms of the same size were joined at […]
A value obtained by dividing the number of movements from the immediately preceding arm where the mouse stayed to an arm different from the immediately preceding arm where the mouse stayed by the number of movements in the arms was calculated as the rate of spontaneous alternation (score of alternation behavior; see FIG. 14).

[3] = tested on: nuclear YAP in brain neurons of 5×FAD mice; experiment: Amounts of nuclear YAP in brain neurons by immunohistochemical staining; format: in vivo, mouse; details: 5×FAD mice given at 1 month of age, measured at 6 months of age, vs 5×FAD mice without administration (FIG. 10)
Method: (§1) Brain tissues were excised from the test subjects or the AD mouse models and fixed in a 4% PFA (paraformaldehyde) solution. Then, 5 µm thick paraffin sections were prepared using a microtome (manufactured by Yamato Kohki Industrial Co., Ltd.). […] Fluorescence signals derived from each primary antibody were detected using a fluorescence microscope (IX70, manufactured by Olympus Corp.) or a confocal laser scanning microscope (FV1200, manufactured by Olympus Corp.) to obtain images (specifically, YAP images, phosphorylated LATS1 serine 909 (Ser909) [pLATS1] images, images of the detected DAPI fluorescence signals derived from the cells nuclei (DAPI images), and overlaid images thereof (merged images). In the DAPI images, cells having the deformed and/or shrunk cell nuclei were evaluated as necrotic cells, and the numbers of necrotic cells in 30 fields of view (143 μm×143 μm) were measured to calculate a necrotic cell number per field of view (see the ordinates of FIGS. 5A to 5C). […]

[4] = tested on: extracellular amyloid β in brain tissues of 5×FAD mice; experiment: Extracellular amyloid β levels of brain tissues by immunohistochemical staining; format: in vivo, mouse; details: 5×FAD mice given at 1 month of age, measured at 6 months of age, vs 5×FAD mice without administration (FIG. 11)
Method: as §1

Q: Which “ER dilation and instability in brain neurons” value [1] does the source give for `CCCCCCCCCCCCC/C=C/[C@@H](O)[C@@H](N)COP(=O)(O)O` [SiP, sphingosine 1-phosphate] here?
A: significantly resolved ER dilation and instability

Q: And the “pSer46-MARCKS levels of brain neurons” value [2]?
A: decreased to the levels of normal mice

Q: And the “cognitive functions (score of alternation behavior, Y-shaped maze)” value (5×FAD mice; 5×FAD mice given at 1 month of age, vs 5×FAD mice without administration (FIGS. 17A and 17B))?
A: equivalent to the ones of normal mice

Q: What about the “cognitive functions (score of alternation behavior, Y-shaped maze)” value (5×FAD mice; 5×FAD mice given at 5 months of age, vs 5×FAD mice without administration (FIGS. 17C and 17D)) of the same compound?
A: equivalent to the ones of normal mice

Q: And the “amounts of nuclear YAP in brain neurons” value [3]?
A: increased and/or restored to the levels of normal mice

Q: What about the “extracellular amyloid β levels of brain tissues” value [4] of the same compound?
A: lower

— patent publication US20220296620A1, “AGENT FOR PREVENTING OR TREATING MILD COGNITIVE IMPAIRMENT” (NATIONAL UNIVERSITY CORPORATION TOKYO MEDICAL AND DENTAL …, priority 2019, published 2022)
